{"source": "patent US20200069644A1", "about": "“NOVEL USE OF A FORMYL PEPTIDE RECEPTOR 2/ LIPOXIN A4 RECEPTOR (FPR2/ALX) AGONIST FOR TREATMENT OF HEART FAILURE” (BRISTOL- MYERS SQUIBB COMPANY, priority 2017, published 2020)", "key": {"[1]": {"system": "Mouse peritoneal macrophages", "test": "Enhancement of phagocytosis of FITC zymosan", "format": "cell-based", "settings": "Peritoneal macrophage; mouse peritoneal macrophages elicited with 1% Biogel; read-out: EC50, enhancement of phagocytosis of fluorescently labeled zymosan", "procedure": "Enhancement of phagocytosis Macrophages were elicited to the peritoneum of five C57BL6 mice by peritoneal injection of 1 mL of 1% Biogel in PBS (−/−) 4 days prior to harvest. Peritoneal exudates are harvested, combined and then filtered to remove Biogel beads. First, through a 70 um cell strainer followed by successively filtering through two 40 um cell strainers. The exudate is diluted with 1×PBS (−/−) to 50 mL and centrifuged at 300×g for 10 minutes at 4° C. The cell pellet is gently resuspended in 20-30 mL 1×PBS(+/+) and cells are counted using the Nexelcom Cellometer counter. Cell concentration is adjusted to 1,250,000 cells/mL in 1×PBS (+/+). 100 μL (125 k) cells are placed into each well of a 96-well Costar 3904 plate. The plates are centrifuged at 150×g for 30 seconds to promote adherence. […] Fluorescence signal from non-ingested Zymosan particles is quenched with 150 uL ice-cold 1:15 diluted Trypan Blue solution for 2 minutes and then aspirated to remove. Lastly, the plate is read on a SpectraMAX Gemini EM fluorescence plate reader in 150 ul of 1:50 diluted Trypan Blue. Plate Reader Settings=Bottom Read: Excitation 493 nm: Emission 525 nm: Cutoff 515 nm: Automix Off: Calibrate On: PMT=Auto: Column Priority: Reads/Well=20. […]"}, "[2]": {"system": "myocardial infarction in mice", "test": "Mouse model of permanent coronary artery occlusion, 28 days", "format": "in vivo", "procedure": "Permanent coronary artery occlusion was carried out in mice using a ligature placed around the left anterior descending artery to induce myocardial infarction. Treatment with orally-administered Compound 1 (0.3 and 3 mg/kg; QD) or dosing solution without compound (QD, referred to as vehicle) was initiated 24 hours following myocardial infarction. Mice subjected to thoracotomy but not infarcted were included as surgical “sham” controls. Mice were evaluated 28 days following myocardial infarction to assess structure/function relationships. Hearts were removed from mice for histological processing to measure left ventricular dimensions, infarct areas and infarct collagen composition.\nThe effect of Compound 1 on left ventricle and infarct scar remodeling was evaluated in a mouse model of permanent coronary artery occlusion. MI was created by permanently ligating the left anterior descending artery with a surgical suture. Treatments (QD, PO) were initiated 24 hours after MI and were continued for 28 days. Treatments consisted of suspension vehicle and Compound 1 at 0.3 mg/kg and 3 mg/kg. A cohort of mice that were subjected to the procedure but were not infarcted were included as a “sham operated” surgical control group. At the end of 28 days of treatment, the hearts were removed for histological evaluation of left ventricle structure and scar structure.\nThis is a model of ischemic heart disease. Infarct size was measured within the left ventricle (LV) and reported as a percentage of the total left ventricle cross sectional area."}, "HL-60 cell line": {"system": "HL-60 cell line", "test": "HL-60 cell migration assay, antagonist mode (SAA-stimulated chemotaxis)", "format": "cell-based", "settings": "Homo sapiens; HL-60 cells; read-out: IC50, antagonism of chemotaxis stimulated by SAA", "procedure": "The HL-60 cell line (ATCC, CCL-240, lot 60398411) was maintained in IMDM (Life Tech, cat 12440-053) medium supplemented with 20% fetal bovine serum, 50 U/ml penicillin, and 50 μg/ml streptomycin at 37° with 5% CO2. Cells were differentiated into the granulocyte lineage with DMSO; 2.5×10^5 cells/ml were incubated with 1.25% DMSO for 5 days.\nAfter 5 day differentiation, the cells were resuspended in phenol free RPMI (Invitrogen, cat 11835) with 0.2% fatty acid free BSA at a concentration of […]. The dHL-60 cells (10^5 in 100 μl) were pre-incubated for 15 minutes with varying concentrations of the […] at 37° with 5% CO2. Then 0.8 μM of the recombinant serum amyloid A1 peptide (rSAA1, PeproTech, Cat #300-53) was added to the bottom chamber of each HTS transwell-96 well plate (Corning #3387). Migration was induced by placing […] and the dHL60 cells mixture in the top chamber of the transwell plate. Cells were allowed to migrate for 120 min across the 5 micron filters at 37° C. with 5% CO2. Following migration, neutrophils or dHL-60 cells remaining in the transwell lower chamber (migrated fraction) were quantitated using the cell-titer-glo luminescence cell viability assay (Promega, G7571). […]"}, "[3]": {"system": "myocardial infarction in mice", "test": "Mouse permanent coronary artery occlusion, early infarct composition 3 days post MI", "format": "in vivo", "settings": "3 mg/kg PO QD", "procedure": "In order to understand early changes in the infarct extracellular matrix, collagen remodeling enzymes and their endogenous inhibitors, the effects of 3 mg/kg Compound 1 treatment on the myocardial infarct composition in mice were evaluated 3 days post myocardial infarction. Myocardial infarction was created by permanently ligating the left anterior descending artery with a surgical suture. Treatment (QD, PO; suspension vehicle or Compound 1 at 3 mg/kg) was initiated 24 hours after MI and were continued to 3 days post MI. On day 3, mice received a final dose of treatment and the hearts were removed 2 hours post treatment (i.e., 74 hours after MI) for histological analysis."}}, "note": "pEC50, pIC50: −log10 of the molar value.", "data": [{"smiles": "COc1cc(F)c([C@@H]2CNC(=O)[C@H]2NC(=O)Nc2ccccc2)c(F)c1", "note": "[Compound 1, 1-((3S,4R)-4-(2,6-difluoro-4-methoxyphenyl)-2-oxopyrrolidin-3-yl)-3-phenylurea]", "values": [{"measurement": "pEC50", "setting": "[1]", "value": 8.70}, {"measurement": "infarct wall thickness, % of mean thickness of sham", "setting": "[2]; 0.3 mg/kg PO QD, 28 days", "value": 61, "unit": "%"}, {"measurement": "reduction of LV chamber area vs. vehicle", "setting": "[2]; 0.3 mg/kg PO QD, 28 days", "value": 26, "unit": "%"}, {"measurement": "infarct wall thickness, % of mean thickness of sham", "setting": "[2]; 3 mg/kg PO QD, 28 days", "value": 67, "unit": "%"}, {"measurement": "reduction of LV chamber area vs. vehicle", "setting": "[2]; 3 mg/kg PO QD, 28 days (trend)", "value": 24, "unit": "%"}, {"measurement": "reduction in LV anterior wall infarct size vs. vehicle", "setting": "[2]; 3 mg/kg PO QD, 28 days, started 24 h after MI, P<0.01", "value": 55, "unit": "%"}, {"measurement": "wall thickness difference vs. vehicle", "setting": "[2]; higher dose (3 mg/kg) PO QD, 28 days, P<0.05", "value": 59, "unit": "%"}, {"measurement": "pIC50", "setting": "HL-60 cell line", "value": 7.24}, {"measurement": "MMP-2 in infarcted myocardium vs. vehicle", "setting": "[3]", "value": "trend towards less MMP-2"}, {"measurement": "TIMP-4 in infarcted tissue vs. vehicle", "setting": "[3]", "value": "No differences"}, {"measurement": "average infarct area vs. vehicle", "setting": "[3]", "value": "similar"}, {"measurement": "collagen content within the infarct, increase vs. vehicle", "setting": "[3]; P<0.05", "value": 1.7, "unit": "fold"}]}]}
